Results as given in patent publication US12077523B2, “N-(isopropyl-triazolyl)pyridinyl)-heteroaryl-carboxamide derivatives and use thereof” (HK INNO.N CORPORATION, priority 2018, dated 2024).

target: T1, ASK-1 enzyme (Homo sapiens, UniProt Q99683); assay: Inhibitory ability against ASK-1 enzyme activity (ADP-Glo Kinase Assay); assay type: biochemical; details: 250 μM ATP, MBP substrate, 15 ng ASK-1 enzyme, 30° C. 40 minutes
T1 construct: purchased Signal Chem M13-11G-10
Procedure: Experimental Example 1: Assay of Inhibitory Ability Against ASK-1 Enzyme Activity (ADP-Glo™ Kinase Assay)
In order to evaluate the inhibitory ability of the compounds of Examples 1 to 24 against ASK-1 enzyme activity, the following experiment was carried out using ADP-Glo™ (Promega, Cat. No. V9101). Each of the compounds was prepared into a solution at concentrations of 0.32 nM, 1.6 nM, 8 nM, 40 nM, 200 nM, 1,000 nM by adding a kinase buffer solution (40 mM Tris, 20 mM MgCl2, 0.1 mg/mL bovine serum albumin in H2O). Subsequently, 250 μM of ATP (Promega, Cat. No. V915A) and 0.5 μg/μL of MBP substrate (Signal Chem, Cat. No. 42-51N) were added thereto, and the mixture was reacted at 30° C. for 40 minutes in the presence of 15 ng of ASK-1 enzyme (Signal Chem, Cat. No. M13-11G-10). Then, the ADP-Glo™ reagent and a kinase detection reagent were sequentially added thereto and reacted for 40 minutes and 10 minutes, respectively. After completion of the reaction, luminescence was measured using a Synergy™ NEO microplate reader (BioTEK, NEOB-1311189).
The inhibitory ability of the compounds of Examples 1 to 24 against ASK-1 enzyme activity was verified by analyzing data from the measured RLU values. Specifically, the inhibitory ability against ASK-1 enzyme activity was assessed by deriving the residual activity percentage of the ASK-1 enzyme in the samples treated with the compounds at the concentration to be tested, while using the RLU value of the sample not treated with the compounds as a 100% control.

T1 sequence (Q99683 649-946 limits assumed): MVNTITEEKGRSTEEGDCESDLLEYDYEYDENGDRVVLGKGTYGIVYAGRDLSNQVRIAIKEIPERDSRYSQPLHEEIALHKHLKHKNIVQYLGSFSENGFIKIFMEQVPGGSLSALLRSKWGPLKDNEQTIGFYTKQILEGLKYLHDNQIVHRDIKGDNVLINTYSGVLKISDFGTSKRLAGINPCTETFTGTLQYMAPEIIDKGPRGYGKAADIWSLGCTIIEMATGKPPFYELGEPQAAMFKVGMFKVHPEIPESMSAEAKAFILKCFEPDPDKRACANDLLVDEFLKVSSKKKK

| IC50 | SMILES |
| --- | --- |
| 7.9 nM | CC(C)n1cnnc1-c1cccc(NC(=O)c2ccc(-c3cccs3)[nH]2)n1 [Example 17, N-(6-(4-isopropyl-4H-1,2,4-triazol-3-yl)pyridin-2-yl)-5-(thiophene-2-yl)-1H-pyrrole-2-carboxamide] |
| 4.8 nM | Cc1ccc(-c2ccc(C(=O)Nc3cccc(-c4nncn4C(C)C)n3)[nH]2)cc1C [Example 18, 5-(3,4-dimethylphenyl)-N-(6-(4-isopropyl-4H-1,2,4-triazol-3-yl)pyridin-2-yl)-1H-pyrrole-2-carboxamide] |
| 5.2 nM | Cc1ccc(-c2ccc(C(=O)Nc3cccc(-c4nncn4C(C)C)n3)[nH]2)cc1F [Example 19, 5-(3-fluoro-4-methylphenyl)-N-(6-(4-isopropyl-4H-1,2,4-triazol-3-yl)pyridin-2-yl)-1H-pyrrole-2-carboxamide] |
| 5.3 nM | CC(C)n1cnnc1-c1cccc(NC(=O)c2ccc(-c3ccc(F)c(Cl)c3)[nH]2)n1 [Example 20, 5-(3-chloro-4-fluorophenyl)-N-(6-(4-isopropyl-4H-1,2,4-triazol-3-yl)pyridin-2-yl)-1H-pyrrole-2-carboxamide] |
| 3.1 nM | CSc1ccc(-c2ccc(C(=O)Nc3cccc(-c4nncn4C(C)C)n3)[nH]2)cc1 [Example 21, N-(6-(4-isopropyl-4H-1,2,4-triazol-3-yl)pyridin-2-yl)-5-(4-(methylthio)phenyl)-1H-pyrrole-2-carboxamide] |
| 5.1 nM | Cc1ccccc1-c1ccc(C(=O)Nc2cccc(-c3nncn3C(C)C)n2)[nH]1 [Example 22, N-(6-(4-isopropyl-4H-1,2,4-triazol-3-yl)pyridin-2-yl)-5-o-tolyl-1H-pyrrole-2-carboxamide] |
| 5.9 nM | CC(C)n1cnnc1-c1cccc(NC(=O)c2ccc(-c3ccc(F)cc3)[nH]2)n1 [Example 23, 5-(4-fluorophenyl)-N-(6-(4-isopropyl-4H-1,2,4-triazol-3-yl)pyridin-2-yl)-1H-pyrrole-2-carboxamide] |
| 7.5 nM | CCOc1ccc(-c2ccc(C(=O)Nc3cccc(-c4nncn4C(C)C)n3)[nH]2)cc1 [Example 24, 5-(4-ethoxyphenyl)-N-(6-(4-isopropyl-4H-1,2,4-triazol-3-yl)pyridin-2-yl)-1H-pyrrole-2-carboxamide] |

Continued, molecule first:

| SMILES | IC50 |
| --- | --- |
| Cc1c[nH]c(C(=O)Nc2cccc(-c3nncn3C(C)C)n2)c1 [Example 1, N-(6-(4-isopropyl-4H-1,2,4-triazol-3-yl)pyridin-2-yl)-4-methyl-1H-pyrrole-2-carboxamide] | 9.9 nM |
| Cc1cccc(-c2c[nH]c(C(=O)Nc3cccc(-c4nncn4C(C)C)n3)c2)c1 [Example 2, N-(6-(4-isopropyl-4H-1,2,4-triazol-3-yl)pyridin-2-yl)-4-m-tolyl-1H-pyrrole-2-carboxamide] | 4 nM |
| COCc1c[nH]c(C(=O)Nc2cccc(-c3nncn3C(C)C)n2)c1 [Example 3, N-(6-(4-isopropyl-4H-1,2,4-triazol-3-yl)pyridin-2-yl)-4-(methoxymethyl)-1H-pyrrole-2-carboxamide] | 7.7 nM |
| CCc1c[nH]c(C(=O)Nc2cccc(-c3nncn3C(C)C)n2)c1 [Example 4, 4-ethyl-N-(6-(4-isopropyl-4H-1,2,4-triazol-3-yl)pyridin-2-yl)-1H-pyrrole-2-carboxamide] | 8.3 nM |
| Cc1ccc(-c2c[nH]c(C(=O)Nc3cccc(-c4nncn4C(C)C)n3)c2)cc1 [Example 5, N-(6-(4-isopropyl-4H-1,2,4-triazol-3-yl)pyridin-2-yl)-4-p-tolyl-1H-pyrrole-2-carboxamide] | 6 nM |
| CC(C)n1cnnc1-c1cccc(NC(=O)c2cc(-c3ccccc3)c[nH]2)n1 [Example 6, N-(6-(4-isopropyl-4H-1,2,4-triazol-3-yl)pyridin-2-yl)-4-phenyl-1H-pyrrole-2-carboxamide] | 6.5 nM |
| CC(C)n1cnnc1-c1cccc(NC(=O)c2ccc[nH]2)n1 [Example 7, N-(6-(4-isopropyl-4H-1,2,4-triazol-3-yl)pyridin-2-yl)-1H-pyrrole-2-carboxamide] | 11.6 nM |
| Cc1ccc(C(=O)Nc2cccc(-c3nncn3C(C)C)n2)[nH]1 [Example 8, N-(6-(4-isopropyl-4H-1,2,4-triazol-3-yl)pyridin-2-yl)-5-methyl-1H-pyrrole-2-carboxamide] | 34.4 nM |
| CC(C)n1cnnc1-c1cccc(NC(=O)c2ccc(-c3ccccc3)[nH]2)n1 [Example 9, N-(6-(4-isopropyl-4H-1,2,4-triazol-3-yl)pyridin-2-yl)-5-phenyl-1H-pyrrole-2-carboxamide] | 5.8 nM |
| Cc1ccc(-c2ccc(C(=O)Nc3cccc(-c4nncn4C(C)C)n3)[nH]2)cc1 [Example 10, N-(6-(4-isopropyl-4H-1,2,4-triazol-3-yl)pyridin-2-yl)-5-p-tolyl-1H-pyrrole-2-carboxamide] | 10.2 nM |
| CCc1ccc(C(=O)Nc2cccc(-c3nncn3C(C)C)n2)[nH]1 [Example 11, 5-ethyl-N-(6-(4-isopropyl-4H-1,2,4-triazol-3-yl)pyridin-2-yl)-1H-pyrrole-2-carboxamide] | 49.7 nM |
| Cc1ncc(-c2ccc(C(=O)Nc3cccc(-c4nncn4C(C)C)n3)[nH]2)cn1 [Example 12, N-(6-(4-isopropyl-4H-1,2,4-triazol-3-yl)pyridin-2-yl)-5-(2-methylpyrimidine-5-yl)-1H-pyrrole-2-carboxamide] | 9.9 nM |
| CC(C)n1cnnc1-c1cccc(NC(=O)c2ccc(-c3ccc(S(C)(=O)=O)cc3)[nH]2)n1 [Example 13, N-(6-(4-isopropyl-4H-1,2,4-triazol-3-yl)pyridin-2-yl)-5-(4-(methylsulfonyl)phenyl)-1H-pyrrole-2-carboxamide] | 4.4 nM |
| Cc1cccc(-c2ccc(C(=O)Nc3cccc(-c4nncn4C(C)C)n3)[nH]2)c1 [Example 14, N-(6-(4-isopropyl-4H-1,2,4-triazol-3-yl)pyridin-2-yl)-5-m-tolyl-1H-pyrrole-2-carboxamide] | 5.8 nM |
| Cc1cc(C)cc(-c2ccc(C(=O)Nc3cccc(-c4nncn4C(C)C)n3)[nH]2)c1 [Example 15, 5-(3,5-dimethylphenyl)-N-(6-(4-isopropyl-4H-1,2,4-triazol-3-yl)pyridin-2-yl)-1H-pyrrole-2-carboxamide] | 8.5 nM |
| CC(C)n1cnnc1-c1cccc(NC(=O)c2ccc(-c3ccc(Cl)cc3)[nH]2)n1 [Example 16, 5-(4-chlorophenyl)-N-(6-(4-isopropyl-4H-1,2,4-triazol-3-yl)pyridin-2-yl)-1H-pyrrole-2-carboxamide] | 5.4 nM |
